{"source": "PubChem BioAssay (NCI)", "note": "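Tested at 5 concentrations; 48 h exposure; 96-well plates; endpoints linearly interpolated, else capped at highest concentration. At the GI50, growth is halved. TGI denotes the concentration required for complete inhibition of growth.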"}
{"tested_on": "OVCAR-3 ovarian", "assay": "NCI tumour cell line growth inhibition, 48 h"}
{"molecule": "O=C(O)Cc1cc(O)c(CC(=O)O)cc1O", "TGI": "> 100 µM"}
{"molecule": "N#Cc1c(Cl)c2cc([N+](=O)[O-])ccc2n2c1nc1ccccc12", "TGI": "29.6 µM"}
{"molecule": "C=CC1(C)CCC2=C(CCC3C(C)(C(=O)OC)CCCC23C)C1=O", "note": "(stereo not drawn)", "TGI": "35.3 µM"}
{"molecule": "O=S1(=O)N(CCNc2nccc(-c3c(-c4cccc(O)c4)nc4sccn34)n2)CCN1Cc1ccccc1", "GI50": "6.23 µM", "TGI": "> 50 µM"}
{"molecule": "C=C(C)C(=O)OC1CCC2(C)C(CCC3C2CCC2(C)C(c4ccc(=O)oc4)CC4OC432)C1", "note": "(stereo not drawn)", "TGI": "15.1 µM"}
{"molecule": "COc1cc(/C=C2\\CCCC3=C2NC(C)=NC3c2cc(OC)c(OC)c(OC)c2)cc(OC)c1OC", "note": "(stereo not drawn)", "GI50": "2.65 µM", "TGI": "> 100 µM"}
{"molecule": "O=C(N/N=C\\c1cccc(O)c1)c1ccncc1", "TGI": "> 100 µM"}
{"molecule": "Cc1cc(O)c(C(C)(C)C)cc1Sc1cc(C(C)(C)C)c(O)cc1C", "GI50": "2.23 µM", "TGI": "5.45 µM"}
{"molecule": "O=C1CCCCC2N(C(c3ccccc3)c3ccccc3)CC[C@@]12c1ccccc1", "note": "(mixture of isomers)", "TGI": "> 10 µM"}
{"molecule": "O=C1NN(C2=NNC3(C(=O)N2)c2ccccc2-c2ccccc23)C(c2ccccc2)=N/C1=C/c1ccc(O)cc1", "GI50": "55.1 µg/mL", "TGI": "> 150 µg/mL"}
{"molecule": "CCOC(=O)C(O)(NC(=O)c1ccc(F)cc1)C(F)(F)F", "note": "(stereo not drawn)", "TGI": "> 100 µM"}
{"molecule": "Cc1nc2ccccc2n1C(=O)c1c(F)c(F)c(F)c(F)c1F", "TGI": "71.6 µM"}
{"molecule": "Clc1ccccc1/C=C/c1cscn1", "TGI": "> 100 µM"}
{"tested_on": "HT29 colon", "assay": "NCI tumour cell line growth inhibition, 48 h"}
{"molecule": "O=C(O)Cc1cc(O)c(CC(=O)O)cc1O", "TGI": "> 100 µM"}
{"molecule": "N#Cc1c(Cl)c2cc([N+](=O)[O-])ccc2n2c1nc1ccccc12", "TGI": "18.4 µM"}
{"molecule": "C=CC1(C)CCC2=C(CCC3C(C)(C(=O)OC)CCCC23C)C1=O", "note": "(stereo not drawn)", "TGI": "31.2 µM"}
{"molecule": "O=S1(=O)N(CCNc2nccc(-c3c(-c4cccc(O)c4)nc4sccn34)n2)CCN1Cc1ccccc1", "GI50": "2.57 µM", "TGI": "36.4 µM"}
{"molecule": "C=C(C)C(=O)OC1CCC2(C)C(CCC3C2CCC2(C)C(c4ccc(=O)oc4)CC4OC432)C1", "note": "(stereo not drawn)", "TGI": "52 µM"}
{"molecule": "O=C(N/N=C\\c1cccc(O)c1)c1ccncc1", "TGI": "> 100 µM"}
{"molecule": "Cc1cc(O)c(C(C)(C)C)cc1Sc1cc(C(C)(C)C)c(O)cc1C", "GI50": "2.34 µM", "TGI": "4.47 µM"}
{"molecule": "O=C1CCCCC2N(C(c3ccccc3)c3ccccc3)CC[C@@]12c1ccccc1", "note": "(mixture of isomers)", "TGI": "> 10 µM"}
{"molecule": "O=C1NN(C2=NNC3(C(=O)N2)c2ccccc2-c2ccccc23)C(c2ccccc2)=N/C1=C/c1ccc(O)cc1", "GI50": "> 150 µg/mL", "TGI": "> 150 µg/mL"}
{"molecule": "CCOC(=O)C(O)(NC(=O)c1ccc(F)cc1)C(F)(F)F", "note": "(stereo not drawn)", "TGI": "> 100 µM"}
{"molecule": "Cc1nc2ccccc2n1C(=O)c1c(F)c(F)c(F)c(F)c1F", "TGI": "27.5 µM"}
{"molecule": "Clc1ccccc1/C=C/c1cscn1", "TGI": "> 100 µM"}
{"tested_on": "SNB-19 CNS", "assay": "NCI tumour cell line growth inhibition, 48 h"}
{"molecule": "O=C(O)Cc1cc(O)c(CC(=O)O)cc1O", "TGI": "> 100 µM"}
{"molecule": "N#Cc1c(Cl)c2cc([N+](=O)[O-])ccc2n2c1nc1ccccc12", "TGI": "20.3 µM"}
{"molecule": "C=CC1(C)CCC2=C(CCC3C(C)(C(=O)OC)CCCC23C)C1=O", "note": "(stereo not drawn)", "TGI": "> 100 µM"}
{"molecule": "O=S1(=O)N(CCNc2nccc(-c3c(-c4cccc(O)c4)nc4sccn34)n2)CCN1Cc1ccccc1", "GI50": "36.4 µM", "TGI": "> 50 µM"}
{"molecule": "C=C(C)C(=O)OC1CCC2(C)C(CCC3C2CCC2(C)C(c4ccc(=O)oc4)CC4OC432)C1", "note": "(stereo not drawn)", "TGI": "72.5 µM"}
{"molecule": "O=C(N/N=C\\c1cccc(O)c1)c1ccncc1", "TGI": "> 100 µM"}
{"molecule": "Cc1cc(O)c(C(C)(C)C)cc1Sc1cc(C(C)(C)C)c(O)cc1C", "GI50": "3.72 µM", "TGI": "13 µM"}
{"molecule": "O=C1CCCCC2N(C(c3ccccc3)c3ccccc3)CC[C@@]12c1ccccc1", "note": "(mixture of isomers)", "TGI": "> 10 µM"}
{"molecule": "O=C1NN(C2=NNC3(C(=O)N2)c2ccccc2-c2ccccc23)C(c2ccccc2)=N/C1=C/c1ccc(O)cc1", "GI50": "94.9 µg/mL", "TGI": "> 150 µg/mL"}
{"molecule": "CCOC(=O)C(O)(NC(=O)c1ccc(F)cc1)C(F)(F)F", "note": "(stereo not drawn)", "TGI": "> 100 µM"}
{"molecule": "Cc1nc2ccccc2n1C(=O)c1c(F)c(F)c(F)c(F)c1F", "TGI": "> 100 µM"}
{"molecule": "Clc1ccccc1/C=C/c1cscn1", "TGI": "> 100 µM"}
{"tested_on": "OVCAR-5 ovarian", "assay": "NCI tumour cell line growth inhibition, 48 h"}
{"molecule": "O=C(O)Cc1cc(O)c(CC(=O)O)cc1O", "TGI": "> 100 µM"}
{"molecule": "N#Cc1c(Cl)c2cc([N+](=O)[O-])ccc2n2c1nc1ccccc12", "TGI": "16.5 µM"}
{"molecule": "C=CC1(C)CCC2=C(CCC3C(C)(C(=O)OC)CCCC23C)C1=O", "note": "(stereo not drawn)", "TGI": "29.5 µM"}
{"molecule": "O=S1(=O)N(CCNc2nccc(-c3c(-c4cccc(O)c4)nc4sccn34)n2)CCN1Cc1ccccc1", "GI50": "29.8 µM", "TGI": "> 50 µM"}
{"molecule": "C=C(C)C(=O)OC1CCC2(C)C(CCC3C2CCC2(C)C(c4ccc(=O)oc4)CC4OC432)C1", "note": "(stereo not drawn)", "TGI": "106 µM"}
{"molecule": "COc1cc(/C=C2\\CCCC3=C2NC(C)=NC3c2cc(OC)c(OC)c(OC)c2)cc(OC)c1OC", "note": "(stereo not drawn)", "GI50": "3.54 µM", "TGI": "> 100 µM"}
{"molecule": "O=C(N/N=C\\c1cccc(O)c1)c1ccncc1", "TGI": "> 100 µM"}
{"molecule": "Cc1cc(O)c(C(C)(C)C)cc1Sc1cc(C(C)(C)C)c(O)cc1C", "GI50": "1.93 µM", "TGI": "4 µM"}
{"molecule": "O=C1CCCCC2N(C(c3ccccc3)c3ccccc3)CC[C@@]12c1ccccc1", "note": "(mixture of isomers)", "TGI": "> 10 µM"}
{"molecule": "O=C1NN(C2=NNC3(C(=O)N2)c2ccccc2-c2ccccc23)C(c2ccccc2)=N/C1=C/c1ccc(O)cc1", "GI50": "> 150 µg/mL", "TGI": "> 150 µg/mL"}
{"molecule": "CCOC(=O)C(O)(NC(=O)c1ccc(F)cc1)C(F)(F)F", "note": "(stereo not drawn)", "TGI": "> 100 µM"}
{"molecule": "Cc1nc2ccccc2n1C(=O)c1c(F)c(F)c(F)c(F)c1F", "TGI": "40.8 µM"}
{"molecule": "Clc1ccccc1/C=C/c1cscn1", "TGI": "> 100 µM"}
{"tested_on": "KM12 colon", "assay": "NCI tumour cell line growth inhibition, 48 h"}
{"molecule": "O=C(O)Cc1cc(O)c(CC(=O)O)cc1O", "TGI": "> 100 µM"}
{"molecule": "N#Cc1c(Cl)c2cc([N+](=O)[O-])ccc2n2c1nc1ccccc12", "TGI": "42.8 µM"}
{"molecule": "C=CC1(C)CCC2=C(CCC3C(C)(C(=O)OC)CCCC23C)C1=O", "note": "(stereo not drawn)", "TGI": "31.5 µM"}
{"molecule": "O=S1(=O)N(CCNc2nccc(-c3c(-c4cccc(O)c4)nc4sccn34)n2)CCN1Cc1ccccc1", "GI50": "5.44 µM", "TGI": "15.3 µM"}
{"molecule": "C=C(C)C(=O)OC1CCC2(C)C(CCC3C2CCC2(C)C(c4ccc(=O)oc4)CC4OC432)C1", "note": "(stereo not drawn)", "TGI": "24.3 µM"}
{"molecule": "O=C(N/N=C\\c1cccc(O)c1)c1ccncc1", "TGI": "> 100 µM"}
{"molecule": "Cc1cc(O)c(C(C)(C)C)cc1Sc1cc(C(C)(C)C)c(O)cc1C", "GI50": "2.24 µM", "TGI": "5.01 µM"}
{"molecule": "O=C1CCCCC2N(C(c3ccccc3)c3ccccc3)CC[C@@]12c1ccccc1", "note": "(mixture of isomers)", "TGI": "> 10 µM"}
{"molecule": "O=C1NN(C2=NNC3(C(=O)N2)c2ccccc2-c2ccccc23)C(c2ccccc2)=N/C1=C/c1ccc(O)cc1", "GI50": "28.6 µg/mL", "TGI": "57.6 µg/mL"}
{"molecule": "CCOC(=O)C(O)(NC(=O)c1ccc(F)cc1)C(F)(F)F", "note": "(stereo not drawn)", "TGI": "> 100 µM"}
{"molecule": "Cc1nc2ccccc2n1C(=O)c1c(F)c(F)c(F)c(F)c1F", "TGI": "14.7 µM"}
